The term ED50 denotes the dose that gives a 50% effect, or the effect in half of the subjects.

≈ marks a conversion by molar mass, not a printed value.

The subject of data set [1] is tracheal chains of guinea pig. The experiment in a line: In vitro bronchodilator activity, tracheal chains of guinea pig (Magnus method). Type of data set: cell-based. The settings on record: Cavia porcellus, relative to maximum response to 0.1 mcg./ml. isoproterenol, read-out: EC50 (concentration which produces a relaxation which is 50% of the maximum response to 0.1 mcg./ml. of isoproterenol). As for the experimental part: A. In Vitro Bronchodilator Activity.
Tracheal chains of guinea pig were prepared by the method of A. Akcasu, Arch. Int. Pharmcodyn. […] The response to each test compound was recorded by the Magnus method and expressed as a percentage of the maximum response obtained with 0.1 mcg./ml. of isoproterenol prior to each experiment.

Data set [2] deals with trachea of anesthetized guinea pig. The experiment in a line: In vivo bronchodilator activity, decrease in intratracheal pressure (ITP) in the guinea pig. The note with it: intravenous; for ED50: Cavia porcellus, anesthetized guinea pig, artificial ventilation, read-out: ITP ED50 (dose resulting in a 50% decrease in intratracheal pressure); for Ratio ABP/ITP (hypotensive ED20/bronchodilating ED50): separation of bronchodilator activity from hypotensive effect. As for the experimental part:
(§1) B. In Vivo Bronchodilator and Hypotensive Activity.
(§2) The trachea of anesthetized guinea pig was cannulated and the ITP recorded on a polygraph under artificial ventilation. Arterial blood pressure (ABP; reflecting hypotensive activity) was also measured during the experiment. Either intravenous or intraduodenal routes of administration are used. […] The ratio of hypotensive ED20 /bronchodilating ED50 reflects an assessment of the separation of desirable bronchodilator activity from undesirable cardiovascular (hypotensive) effect in the compounds.

The subject of a further data set is anesthetized guinea pig. Briefly: In vivo hypotensive activity, arterial blood pressure (ABP) in the guinea pig. The settings on record: intravenous, artificial ventilation. As for the experimental part:
as §1, §2

Take `CCCSc1nc(N)c2ncn(C3C=CCCC3)c2n1` (stereo not drawn) [Example 1, 9-(2-Cyclohexenyl)-2-n-propylthio-9H-adenine]: the EC50 in data set [1] was found to be 0.02 µg/mL (≈ 0.0691 µM). In data set [2], the ED50 came to 0.31 mg/kg and the “Ratio ABP/ITP (hypotensive ED20/bronchodilating ED50)” value was greater than 9.7. Moreover, the “ABP ED20 (dose which reduces arterial blood pressure by 20%)” value in the data set on anesthetized guinea pig was greater than 3 mg/kg.
Regarding `Cn1c(=O)c2[nH]cnc2n(C)c1=O` [Aminophylline, reference compound], the “ABP ED20 (dose which reduces arterial blood pressure by 20%)” value in the data set with anesthetized guinea pig was determined as 1.4 mg/kg.
For the compound `CCCSc1nc(N)c2ncn(C3CCCCC3)c2n1` [Example 2, 9-Cyclohexyl-2-n-propylthio-9H-adenine], the EC50 in data set [1] came to 0.19 µg/mL (≈ 0.652 µM). In addition, in data set [2], the 50% effective dose (ED50) was 1.1 mg/kg and the “Ratio ABP/ITP (hypotensive ED20/bronchodilating ED50)” value is on record as greater than 2.7. In addition, the “ABP ED20 (dose which reduces arterial blood pressure by 20%)” value with anesthetized guinea pig was greater than 3 mg/kg.
